Laboratory results taken from patent publication US6677336B2, “Substituted piperazine compounds” (CV Therapeutics, Inc., priority 2000, dated 2004).

Test system: mitochondrial fatty acid oxidation (rat heart mitochondria)
Assay: Palmitoyl CoA oxidation in isolated rat heart mitochondria
Assay type: biochemical
Conditions: 100 μM compound; 15 min at 30° C; DMSO control
Method: Compounds of this invention were evaluated in a rat heart mitochondiral assay as set forth below.
Rat heart mitochondria were isolated by the method of Nedergard and Cannon (methods in Enzymol. 55, 3, 1979).
Palmitoyl CoA oxidation—The Palmityl CoA oxidation was carried out in a total volume of 100 micro liters containing the following agents: 110 mM KCl, 33 mM Tris buffer at pH 8, 2 mM KPi, 2 mM MgCl2, 0.1 mM EDTA, 14.7 microM defatted BSA, 0.5 mM malic acid, 13 mM carnitine, 1 mM ADP, 52 micrograms of mitochondrial protein, and 16 microM 1-C14 palmitoyl CoA (Sp. Activity 60 mCi/mmole; 20 microCi/ml, using 5 microliters per assay). The compounds of this invention were added in a DMSO solution at the following concentrations: 100 microM, 30 microM, and 3 microM. In each assay, a DMSO control was used. After 15 min at 30° C., the enzymatic reaction was centrifuged (20,000 g for 1 min), and 70 microliters of the supernatant was added to an activated reverse phase silicic acid column (approximately 0.5 ml of silicic acid). The column was eluted with 2 ml of water, and 0.5 ml of the eluent was used for scintillation counting to determine the amount of C^14 trapped as C^14 bicarbonate ion.

| SMILES | Inhibition of mitochondrial fatty acid oxidation using palmitoyl CoA as substrate - % of Control [%] |
| --- | --- |
| Cc1cccc(C)c1NC(=O)CN1CCN(CC(O)CCOc2ccc(F)cc2)CC1 (stereo not shown) [Compound 21, N-(2,6-dimethylphenyl)-2-{4-[4-(4-fluorophenoxy)-2-hydroxybutyl]-piperazinyl}acetamide] | 87 |
| Cc1cccc(C)c1NC(=O)CN1CCN(C[C@H](O)COc2ccccc2F)[C@@H](C)C1 [Compound 25, 2-{(3S)-4-[(2S)-3-(2-fluorophenoxy)-2-hydroxypropyl]-3-methylpiperazinyl}-N-(2,6-dimethylphenyl)acetamide] | 77 |
| C[C@H]1CN(CC(=O)Nc2c(Cl)cccc2Cl)CCN1C[C@H](O)COc1ccccc1F [Compound 26, 2-{(3S)-4-[(2S)-3-(2-fluorophenoxy)-2-hydroxypropyl]-3-methylpiperazinyl}-N-(2,6-dichlorophenyl)acetamide] | 0 |
| COc1cc(NC(=O)CN2CCN(C[C@H](O)COc3ccccc3F)[C@@H](C)C2)cc(C(F)(F)F)c1 [Compound 28, 2-{(3S)-4-[(2S)-3-(2-fluorophenoxy)-2-hydroxypropyl]-3-methylpiperazinyl}-N-(5-methoxy-3-(trifluoromethyl)phenyl]acetamide] | 59 |
| C[C@H]1CN(CC(=O)Nc2ccc3c(c2)CCC3)CCN1C[C@H](O)COc1ccccc1F [Compound 29, 2-{(3S)-4-[(2S)-3-(2-fluorophenoxy)-2-hydroxypropyl]-3-methylpiperazinyl}-N-indan-5-ylacetamide] | 51 |
| C[C@H]1CN(CC(=O)Nc2cccc3ccccc23)CCN1C[C@H](O)COc1ccccc1F [Compound 30, 2-{(3S)-4-[(2S)-3-(2-fluorophenoxy)-2-hydroxypropyl]-3-methylpiperazinyl}-N-naphthylacetamide] | 16 |
| C[C@H]1CN(CC(=O)Nc2ccc(Cl)c3ccccc23)CCN1C[C@H](O)COc1ccccc1F [Compound 31, 2-{(3S)-4-[(2S)-3-(2-fluorophenoxy)-2-hydroxypropyl]-3-methylpiperazinyl}-N-(4-chloronaphthyl)acetamide] | 87 |
| C[C@H]1CN(CC(=O)Nc2ccccc2-n2cccc2)CCN1C[C@H](O)COc1ccccc1F [Compound 32, 2-{(3S)-4-[(2S)-3-(2-fluorophenoxy)-2-hydroxypropyl]-3-methylpiperazinyl}-N-(2-pyrrolylphenyl)acetamide] | 74 |
| C[C@H]1CN(CC(=O)Nc2ccccc2)CCN1C[C@H](O)COc1ccccc1F [Compound 33, 2-{(3S)-4-[(2S)-3-(2-fluorophenoxy)-2-hydroxypropyl]-3-methylpiperazinyl}-N-phenylacetamide] | 63 |
| C[C@H]1CN(CC(=O)Nc2ccccc2Cl)CCN1C[C@H](O)COc1ccccc1F [Compound 34, 2-{(3S)-4-[(2S)-3-(2-fluorophenoxy)-2-hydroxypropyl]-3-methylpiperazinyl}-N-(2-chlorophenyl)acetamide] | 48 |
| Cc1ccc(NC(=O)CN2CCN(C[C@H](O)COc3ccccc3F)[C@@H](C)C2)c(Cl)c1 [Compound 35, 2-{(3S)-4-[(2S)-3-(2-fluorophenoxy)-2-hydroxypropyl]-3-methylpiperazinyl}-N-(2-chloro-4-methylphenyl)acetamide] | 45 |
| C=C(C)c1ccccc1NC(=O)CN1CCN(C[C@H](O)COc2ccccc2F)[C@@H](C)C1 [Compound 36, 2-{(3S)-4-[(2S)-3-(2-fluorophenoxy)-2-hydroxypropyl]-3-methylpiperazinyl}-N-[2-(1-methylvinyl)phenyl]acetamide] | 61 |
| Cc1ccccc1NC(=O)CN1CCN(C[C@H](O)COc2ccccc2F)[C@@H](C)C1 [Compound 37, 2-{(3S)-4-[(2S)-3-(2-fluorophenoxy)-2-hydroxypropyl]-3-methylpiperazinyl}-N-(2-methylphenyl)acetamide] | 55 |
| Cc1cccc(C(C)C)c1NC(=O)CN1CCN(C[C@H](O)COc2ccccc2F)[C@@H](C)C1 [Compound 38, 2-{(3S)-4-[(2S)-3-(2-fluorophenoxy)-2-hydroxypropyl]-3-methylpiperazinyl}-N-[6-methyl-2-(methylethyl)phenyl]acetamide] | 78 |
| CSc1cccc(NC(=O)CN2CCN(C[C@H](O)COc3ccccc3F)[C@@H](C)C2)c1 [Compound 39, 2-{(3S)-4-[(2S)-3-(2-fluorophenoxy)-2-hydroxypropyl]-3-methylpiperazinyl}-N-(3-methylthiophenyl)acetamide] | 60 |
| COc1cc(Cl)c(C)cc1NC(=O)CN1CCN(C[C@H](O)COc2ccccc2F)[C@@H](C)C1 [Compound 40, 2-{(3S)-4-[(2S)-3-(2-fluorophenoxy)-2-hydroxypropyl]-3-methylpiperazinyl}-N-(4-chloro-2-methoxy-5-methylphenyl)acetamide] | 23 |
| C[C@H]1CN(CC(=O)Nc2ccc(N(C)C)cc2)CCN1C[C@H](O)COc1ccccc1F [Compound 41, 2-{(3S)-4-[(2S)-3-(2-fluorophenoxy)-2-hydroxypropyl]-3-methylpiperazinyl}-N-[4-(dimethylamino)phenyl]acetamide] | 64 |
| COc1ccc(NC(=O)CN2CCN(C[C@H](O)COc3ccccc3F)[C@@H](C)C2)c(OC)c1 [Compound 42, 2-{(3S)-4-[(2S)-3-(2-fluorophenoxy)-2-hydroxypropyl]-3-methylpiperazinyl}-N-(2,4-dimethoxyphenyl)acetamide] | 68 |
| C[C@H]1CN(CC(=O)Nc2ccc(Cl)c(Cl)c2)CCN1C[C@H](O)COc1ccccc1F [Compound 43, 2-{(3S)-4-[(2S)-3-(2-fluorophenoxy)-2-hydroxypropyl]-3-methylpiperazinyl}-N-(3,4-dichlorophenyl)acetamide] | 19 |
| C[C@H]1CN(CC(=O)Nc2ccc(Cl)cc2)CCN1C[C@H](O)COc1ccccc1F [Compound 44, 2-{(3S)-4-[(2S)-3-(2-fluorophenoxy)-2-hydroxypropyl]-3-methylpiperazinyl}-N-(4-chlorophenyl)acetamide] | 81 |
| C[C@H]1CN(CC(=O)Nc2cccc(Cl)c2)CCN1C[C@H](O)COc1ccccc1F [Compound 45, 2-{(3S)-4-[(2S)-3-(2-fluorophenoxy)-2-hydroxypropyl]-3-methylpiperazinyl}-N-(3-chlorophenyl)acetamide] | 58 |
| C[C@H]1CN(CC(=O)Nc2cc(Cl)cc(Cl)c2)CCN1C[C@H](O)COc1ccccc1F [Compound 46, 2-{(3S)-4-[(2S)-3-(2-fluorophenoxy)-2-hydroxypropyl]-3-methylpiperazinyl}-N-(3,5-dichlorophenyl)acetamide] | 7 |
| COc1ccc(NC(=O)CN2CCN(C[C@H](O)COc3ccccc3F)[C@@H](C)C2)cc1 [Compound 47, 2-{(3S)-4-[(2S)-3-(2-fluorophenoxy)-2-hydroxypropyl]-3-methylpiperazinyl}-N-(4-methoxyphenyl)acetamide] | 80 |
| Cc1ccc(NC(=O)CN2CCN(C[C@H](O)COc3ccccc3F)[C@@H](C)C2)cc1 [Compound 48, 2-{(3S)-4-[(2S)-3-(2-fluorophenoxy)-2-hydroxypropyl]-3-methylpiperazinyl}-N-(4-methylphenyl)acetamide] | 61 |
| Cc1cccc(NC(=O)CN2CCN(C[C@H](O)COc3ccccc3F)[C@@H](C)C2)c1 [Compound 49, 2-{(3S)-4-[(2S)-3-(2-fluorophenoxy)-2-hydroxypropyl]-3-methylpiperazinyl}-N-(3-methylphenyl)acetamide] | 66 |
| C[C@H]1CN(CC(=O)Nc2ccc(F)cc2)CCN1C[C@H](O)COc1ccccc1F [Compound 50, 2-{(3S)-4-[(2S)-3-(2-fluorophenoxy)-2-hydroxypropyl]-3-methylpiperazinyl}-N-(4-fluorophenyl)acetamide] | 80 |
| C[C@H]1CN(CC(=O)Nc2ccc(C#N)cc2)CCN1C[C@H](O)COc1ccccc1F [Compound 51, 2-{(3S)-4-[(2S)-3-(2-fluorophenoxy)-2-hydroxypropyl]-3-methylpiperazinyl}-N-(4-cyanophenyl)acetamide] | 99 |
| COc1ccccc1NC(=O)CN1CCN(C[C@H](O)COc2ccccc2F)[C@@H](C)C1 [Compound 53, 2-{(3S)-4-[(2S)-3-(2-fluorophenoxy)-2-hydroxypropyl]-3-methylpiperazinyl}-N-(2-methoxyphenyl)acetamide] | 81 |
